Source: ChEMBL document CHEMBL1201862, “PubChem BioAssay data set” (2004)
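Five compound concentrations were applied to cells in 96-well plates for 48 hours; endpoints were derived by simple linear interpolation of the resulting dose-response curve. GI50 marks 50% less growth.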 Activity calls are given as the source filed them. Rule as the data show it: active = GI50 up to about 1.1 µM and inactive = higher.

Assays:
Test in all cases: inhibition of tumour cell growth, NCI panel, 48 h
786-0 = system: 786-0
A498 = system: A498
A549 = system: A549
CAKI-1 = system: CAKI-1
CCRF-CEM = system: CCRF-CEM
COLO 205 = system: COLO 205
DLD-1 = system: DLD-1
DMS-114 = system: DMS-114
DMS-273 = system: DMS-273
EKVX = system: EKVX
HCC 2998 = system: HCC 2998
HCT-116 = system: HCT-116
HCT-15 = system: HCT-15
HL-60 = system: HL-60
HOP-18 = system: HOP-18
HOP-62 = system: HOP-62
HOP-92 = system: HOP-92
HT-29 = system: HT-29
IGROV-1 = system: IGROV-1
K562 = system: K562
KM-20L2 = system: KM-20L2
KM12 = system: KM12
LOX IMVI = system: LOX IMVI
LXFL 529 = system: LXFL 529
M14 = system: M14
M19-MEL = system: M19-MEL
MOLT-4 = system: MOLT-4
Malme-3M = system: Malme-3M
NCI-H226 = system: NCI-H226
NCI-H23 = system: NCI-H23
NCI-H460 = system: NCI-H460
NCI-H522 = system: NCI-H522
OVCAR-3 = system: OVCAR-3
OVCAR-4 = system: OVCAR-4
OVCAR-5 = system: OVCAR-5
OVCAR-8 = system: OVCAR-8
RPMI-8226 = system: RPMI-8226
RXF 393 = system: RXF 393
SF-268 = system: SF-268
SF-295 = system: SF-295
SF-539 = system: SF-539
SK-MEL-5 = system: SK-MEL-5
SK-OV-3 = system: SK-OV-3
SN12C = system: SN12C
SNB-19 = system: SNB-19
SNB-75 = system: SNB-75
SNB-78 = system: SNB-78
SR = system: SR
SW-620 = system: SW-620
TK-10 = system: TK-10
U-251 = system: U-251
UACC-257 = system: UACC-257
UACC-62 = system: UACC-62
UO-31 = system: UO-31
XF498 = system: XF498
ACHN = system: ACHN
SK-MEL-28 = system: SK-MEL-28
SK-MEL-2 = system: SK-MEL-2

Measured: GI50

CCCCCCCC(=O)NCC(O)CNC(=O)CCCCCCC
> 100 µM: HCT-15
inactive: 786-0 > 100 µM | A498 > 100 µM | A549 > 100 µM | CAKI-1 > 100 µM | CCRF-CEM 88.1 µM | COLO 205 > 100 µM | DLD-1 > 100 µM | DMS-114 > 100 µM | DMS-273 > 100 µM | EKVX > 100 µM | HCC 2998 > 100 µM | HCT-116 > 100 µM | HL-60 > 100 µM | HOP-18 > 100 µM | HOP-62 > 100 µM | HOP-92 > 100 µM | HT-29 > 100 µM | IGROV-1 > 100 µM | K562 > 100 µM | KM-20L2 > 100 µM | KM12 > 100 µM | LOX IMVI > 100 µM | LXFL 529 > 100 µM | M14 > 100 µM | M19-MEL > 100 µM | MOLT-4 > 100 µM | Malme-3M > 100 µM | NCI-H226 > 100 µM | NCI-H23 > 100 µM | NCI-H460 > 100 µM | NCI-H522 > 100 µM | OVCAR-3 > 100 µM | OVCAR-4 > 100 µM | OVCAR-5 > 100 µM | OVCAR-8 > 100 µM | RPMI-8226 > 100 µM | RXF 393 > 100 µM | SF-268 > 100 µM | SF-295 > 100 µM | SF-539 > 100 µM | SK-MEL-5 > 100 µM | SK-OV-3 > 100 µM | SN12C > 100 µM | SNB-19 > 100 µM | SNB-75 > 100 µM | SNB-78 > 100 µM | SR > 100 µM | SW-620 > 100 µM | TK-10 > 100 µM | U-251 > 100 µM | UACC-257 > 100 µM | UACC-62 > 100 µM | UO-31 > 100 µM | XF498 > 100 µM

CN1N=C2c3ccccc3OC(c3ccccc3)[C@H]2C1c1ccccc1 (stereo not given in full)
inactive: 786-0 > 100 µM | A498 > 100 µM | A549 72.9 µM | ACHN > 100 µM | CCRF-CEM 38.4 µM | COLO 205 > 100 µM | DLD-1 95.3 µM | DMS-114 44.1 µM | DMS-273 > 100 µM | EKVX > 100 µM | HCC 2998 56.1 µM | HCT-116 29.7 µM | HL-60 37.3 µM | HOP-18 > 100 µM | HOP-62 95.5 µM | HOP-92 32.7 µM | HT-29 42.1 µM | IGROV-1 90.8 µM | K562 88.1 µM | KM-20L2 51.2 µM | KM12 > 100 µM | LOX IMVI > 100 µM | LXFL 529 37.6 µM | M14 > 100 µM | M19-MEL > 100 µM | MOLT-4 35.2 µM | Malme-3M 22.2 µM | NCI-H226 > 100 µM | NCI-H23 79.4 µM | NCI-H460 97.1 µM | NCI-H522 22.5 µM | OVCAR-3 > 100 µM | OVCAR-4 85.1 µM | OVCAR-5 > 100 µM | OVCAR-8 > 100 µM | RPMI-8226 89.7 µM | RXF 393 28.2 µM | SF-268 > 100 µM | SF-295 90.4 µM | SF-539 > 100 µM | SK-MEL-28 > 100 µM | SK-MEL-2 > 100 µM | SK-OV-3 > 100 µM | SN12C > 100 µM | SNB-19 > 100 µM | SNB-78 26.4 µM | SR > 100 µM | SW-620 > 100 µM | TK-10 > 100 µM | U-251 > 100 µM | UACC-257 81.1 µM | UACC-62 > 100 µM | UO-31 61.1 µM | XF498 > 100 µM
75 µM: HCT-15
